# Paper PMC6361752, “Construction of a Quantitative Structure Activity Relationship (QSAR) Model to Predict the Absorption of Cephalosporins in Zebrafish for Toxicity Study” (Frontiers in Pharmacology, 2019)
# Test system: Zebrafish wild-type (WT) embryos
# Assay: Absorption (internal concentration) of cephalosporins in zebrafish embryos by LC-MS/MS
# Conditions: 6 hpf-3 dpf; for k-value (slope of the dose-internal concentration linear regression): zebrafish embryos, 0.28, 1.0 and 2.0 mM, higher k = more readily absorbed
# Method: Zebrafish (Danio rerio) were fed at the Institute of Medicinal Biotechnology, Beijing Union Medical College, Beijing, China. […] Zebrafish wild-type (WT) embryos (n = 30) at 6 h post-fertilization (6 hpf) were used. After immersing the embryos in 2 mL of each drug solution (Drugs were dissolved in breeding water), they were incubated in a 20 mm dish for 3 days. […] The zebrafish bodies were collected at 3 days post-fertilization (dpf). The blank controls were zebrafish WT embryos (n = 30) that were incubated in breeding water.
# Using a cell strainer (100 μm, BD-Falcon, United States), zebrafish bodies (30 in each dish) were washed five times with deionized water. Zebrafish bodies were triturated in 100 μL of deionized water, and then they were homogenized for 1 min. Zebrafish homogenate (50 μL) and internal standard (IS) working solution (10 μL) were individually transferred into a 1.5-mL microcentrifuge tube. Then, 200 μL of 1% formic acid-methanol solution was added into the tube. The samples were vortexed for 20 s. To precipitate proteins, the samples were centrifuged at 10,800 g for 10 min. The resultant supernatant (10 μL) was injected into LC-MS/MS for analysis.
# The LC-MS/MS technique was performed by combining a 20A LC (Shimadzu, Kyoto, Japan) and a 6500 Q-Trap mass spectrometer (AB Sciex, Foster City, CA, United States), which was equipped with an electrospray ionization (ESI) source. Moreover, LC separations were performed on a reversed-phase ACE C18 column (5 cm × 2.1 mm ID, 3 μm particle size, Advanced Chromatography Technologies, Aberdeen, United Kingdom), which was attached to a corresponding guard column (1 cm × 2.1 mm ID, 3 μm particle size; Advanced Chromatography Technologies, United Kingdom). The mobile phase comprised of 5 mM ammonium formate (pH = 3.5) (solvent A) and acetonitrile (solvent B). The composition of the gradient was as follows: 2% solvent B for the first 0.1 min; 3.5 min, 90% solvent B; 6.0 min, 90% solvent B; 6.1 min, 2% solvent B; and 10 min, 2% solvent B. Mass spectrometric analysis was performed in a positive mode. Ion-spray voltage was set at 5000 V, and source temperature was kept fixed at 500°C. Curtain gas, gas 1, and gas 2 were 25, 40, and 40 psi, respectively. Multiple reaction monitoring (MRM) scan was used for the quantification of 19 analytes. In this scan, we determined the most intense product ion (PI) of each analyte. The entrance potential (EP) of all analytes was 10 eV. For each ion transition, dwell time and pause time were set to 30 and 5 ms, respectively. The Analyst 1.6.2 software (AB Sciex, Foster City, CA, United States) was used to perform data acquisition and analysis.
# Dose-internal concentration curves were constructed by linear regression analysis. The slope of each linear regression was defined as k-value for each drug. […] The entire data set was split into the training set and test set by a random index, which was operated by DS4.0 software. The training set percentage was set at 80.
# Using the aforementioned method, we analyzed the internal concentrations of cephalosporins in zebrafish. […] The calibration samples and administration samples were processed in a timely manner. The internal concentration of each cephalosporin in the zebrafish was calculated by using the corresponding calibration curve (Table 2). […] Dose-internal concentration curves were constructed by linear regression analysis (Figure 1). For each drug, the slope of each linear regression was defined as k-value. This parameter was used to evaluate the absorption capacity of each drug.
# [1] = zebrafish embryos exposed to 0.28 mM drug solution
# [2] = zebrafish embryos exposed to 1 mM drug solution
# [3] = zebrafish embryos exposed to 2 mM drug solution
SMILES,Internal concentration [1] [mM × 10^-5],Internal concentration [2] [mM × 10^-5],Internal concentration [3] [mM × 10^-5],k-value (slope of the dose-internal concentration linear regression),also measured
CC(=O)OCC1=C(C(=O)O)N2C(=O)[C@@H](NC(=O)CSC(=NC(C)C)NC(C)C)[C@H]2SC1 [Cefathiamidine],0.49,1.29,1.63,0.6439,k-value (slope of the dose-internal concentration linear regression) (listed as cefathiamidine): < 5
CO/N=C(\C(=O)N[C@@H]1C(=O)N2C(C(=O)[O-])=C(C[n+]3cccc4c3CCC4)CS[C@H]12)c1csc(N)n1 [Cefpirome],0.21,0.86,1.67,< 5,–
O=C(Cn1cnnn1)N[C@@H]1C(=O)N2C(C(=O)O)=C(CSc3nncs3)CS[C@H]12 [Ceftezole],3.95,7.08,12.96,5.2798,k-value (slope of the dose-internal concentration linear regression) (listed as ceftezole): > 5
CO[C@@]1(NC(=O)CSC(F)F)C(=O)N2C(C(=O)O)=C(CSc3nnnn3CCO)CO[C@@H]21 [Flomoxef],1.07,8.30,11.54,5.9111,k-value (slope of the dose-internal concentration linear regression) (listed as flomoxef): > 5
CO/N=C(\C(=O)N[C@@H]1C(=O)N2C(C(=O)O)=C(COC(N)=O)CS[C@H]12)c1ccco1 [Cefuroxime],0.68,1.55,4.66,2.3643,k-value (slope of the dose-internal concentration linear regression) (listed as cefuroxime): < 5
CC1=C(C(=O)O)N2C(=O)[C@@H](NC(=O)[C@H](N)C3=CCC=CC3)[C@H]2SC1 [Cefradine],3.15,8.93,19.89,9.8110,k-value (slope of the dose-internal concentration linear regression) (listed as cefradine): > 5
CO/N=C(\C(=O)N[C@@H]1C(=O)N2C(C(=O)O)=C(CSc3nnnn3C)CS[C@H]12)c1csc(N)n1 [Cefmenoxime],0.00,0.71,1.14,0.6493,k-value (slope of the dose-internal concentration linear regression) (listed as cefmenoxime): < 5
N[C@@H](C(=O)N[C@@H]1C(=O)N2C(C(=O)O)=C(Cl)CS[C@H]12)c1ccccc1 [Cefaclor],1.01,3.43,9.49,5.0027,k-value (slope of the dose-internal concentration linear regression) (listed as cefaclor): > 5
CO/N=C(\C(=O)N[C@@H]1C(=O)N2C(C(=O)O)=C(COC(C)=O)CS[C@H]12)c1csc(N)n1 [Cefotaxime],0.27,0.75,0.82,–,–
CC1=C(C(=O)O)N2C(=O)[C@@H](NC(=O)[C@H](N)c3ccc(O)cc3)[C@H]2SC1 [Cefadroxil],1.32,7.07,12.55,6.4617,k-value (slope of the dose-internal concentration linear regression) (listed as cefadroxil): > 5
CC1=C(C(=O)O)N2C(=O)[C@@H](NC(=O)[C@H](N)c3ccccc3)[C@H]2SC1 [Cefalexin],1.01,5.48,16.83,9.3280,–
Cc1nnc(SCC2=C(C(=O)O)N3C(=O)[C@@H](NC(=O)Cn4cnnn4)[C@H]3SC2)s1 [Cefazolin],8.56,13.95,14.19,3.0851,k-value (slope of the dose-internal concentration linear regression) (listed as cefazolin): < 5
CCN1CCN(C(=O)N[C@@H](C(=O)N[C@@H]2C(=O)N3C(C(=O)O)=C(CSc4nnnn4C)CS[C@H]23)c2ccc(O)cc2)C(=O)C1=O [Cefoperazone],1.30,5.75,12.47,6.5063,k-value (slope of the dose-internal concentration linear regression) (listed as cefoperazone): > 5
CO/N=C(\C(=O)N[C@@H]1C(=O)N2C(C(=O)O)=C(CSc3nc(C)c(CC(=O)O)s3)CS[C@H]12)c1csc(N)n1 [Cefodizime],0.51,0.94,3.47,1.7709,k-value (slope of the dose-internal concentration linear regression) (listed as cefodizime): < 5
CC(C)(O/N=C(\C(=O)N[C@@H]1C(=O)N2C(C(=O)[O-])=C(C[n+]3ccccc3)CS[C@H]12)c1csc(N)n1)C(=O)O [Ceftazidime],0.00,2.45,5.47,3.1702,k-value (slope of the dose-internal concentration linear regression) (listed as ceftazidime): < 5
CO[C@@]1(NC(=O)Cc2cccs2)C(=O)N2C(C(=O)O)=C(COC(N)=O)CS[C@@H]21 [Cefoxitin],2.22,12.73,18.39,9.1638,k-value (slope of the dose-internal concentration linear regression) (listed as cefoxitin): > 5
CN(C)CCn1nnnc1SCC1=C(C(=O)O)N2C(=O)[C@@H](NC(=O)Cc3csc(N)n3)[C@H]2SC1 [Cefotiam],0.25,1.31,3.73,2.0488,k-value (slope of the dose-internal concentration linear regression) (listed as cefotiam): < 5
CO/N=C(\C(=O)N[C@@H]1C(=O)N2C(C(=O)O)=CCS[C@H]12)c1csc(N)n1 [Ceftizoxime],1.17,3.70,13.15,7.1156,k-value (slope of the dose-internal concentration linear regression) (listed as ceftizoxime): > 5
